Experimental findings from patent US8097773B2, “Process for selecting banana clones and banana clones obtained thereby” (Rahan Meristem (1998) Ltd, priority 2004, dated 2012) are described below.

Assay type in all cases: in vivo, Musa acuminata AAA, cv. 'Grande Naine'
For assay [1], the system named is Dwarf mutant banana Grande Naine plantlets. Description: Influence of GA3 on internode length of in-vitro banana plantlets (GA sensitivity bioassay), Dwarf. As to the method: (§1) Somaclonal variants with both high and low sensitivity to GA were generated as a consequence of an extensive duration in tissue culture. Both ‘off-types’ were detectable by a relatively simple bioassay developed in this laboratory (Table 4). […] On the other hand the ‘Extra Dwarf’ phenotype was insensitive to the presence of GA in the medium.
(§2) Meristem culture was performed on a single ‘Grande Naine’ clone employing a standard protocol used at Rahan Meristem. The meristems were sub-cultured extensively (23 cycles) to induce somaclonal variations. The in vitro plantlets were transferred to a stage III medium containing 10 ppm of gibberellic acid (GA). […] Further analysis of somaclonal variation was carried out in ex-vitro conditions. Following acclimatization, the plants were planted in 5 L pots and placed in a poly-ethylene covered greenhouse for approximately 16 weeks prior to selection of ‘off-types’. Candidate plants showing distinct somaclonal variations were selected and used for further analysis. Stability of the different mutations was monitored following the growth of the selected clones in a commercial plantation in Rosh Hanikra, Israel.

In assay [2] the test system is normal in-vitro banana Grande Naine plantlets. Description: Influence of GA3 on internode length of in-vitro banana plantlets (GA sensitivity bioassay), normal. To be noted: GA3 10 mg/L in medium, grown 5 weeks, hormone-free control 14.2. The method, then:
as §1, §2

In assay [3] the test system is Extra dwarf mutant banana Grande Naine plantlets. Briefly: Influence of GA3 on internode length of in-vitro banana plantlets (GA sensitivity bioassay), Extra dwarf. The method, then:
as §1, §2

Consider `C=C1C[C@]23C[C@@]1(O)CC[C@H]2[C@@]12C=C[C@H](O)[C@@](C)(C(=O)O1)[C@H]2[C@@H]3C(=O)O` [GA3, gibberellic acid], for which the “"internode" length” value came out at 14.9 b cm in assay [1] (Dwarf plantlets, GA3 10 mg/L in medium, grown 5 weeks, hormone-free control 10.8); 21.7 a cm in assay [2]; 9.6 cm·days in assay [3] (Extra dwarf mutant plantlets, GA3 10 mg/L in medium, grown 5 weeks, hormone-free control 9.6). Also, the “sensitivity to GA” value is on record as “showed sensitivity” in assay [1] (dwarf genotype, GA in the medium) and “insensitive” in assay [3] ('Extra Dwarf' phenotype, GA in the medium).
